Source: patent US20120129842A1, “BISTHIAZOLE INHIBITORS OF PRO-MATRIX METALLOPROTEINASE ACTIVATION” (priority 2010, published 2012)
pIC50: −log10 of the molar value.

Columns and labels:
proMMP9 = molecular target: T1, proMMP9 (Homo sapiens, UniProt P14780); test: Activation of proMMP9 by human fetal lung fibroblast (HFL-1) cultures (Western blot); assay type: cell-based
T1 construct: host or cells: HFL-1 human fetal lung fibroblasts, TNFα plus human neutrophil elastase
Procedure: Activation of proMMP9 by Human Fetal Lung Fibroblast Cultures Example 64 was assessed additionally for ability to block the maturation of proMMP9 to active MMP9 in cultures of human fetal lung fibroblasts (HFL-1, American Type Culture Collection #CCL-153). Unlike rat synoviocytes, HFL-1 cells were unable to process proMMP9 to the active form without addition of neutrophil elastase. […] Rather, the function of elastase in this assay may be to inactivate tissue inhibitors of matrix metalloproteinases (TIMPs) that repress endogenous pathways of MMP9 activation (Am J Respir Grit Care Med; 1999; 159:1138-46).
HLF-1 were maintained in monolayer culture in DMEM with 10% FCS and were used between passage numbers 5-15. HLF-1 were embedded in collagen gels as described for rat SCW synoviocytes (vida supra). Half mL gels containing 0.4 million cells were dislodged into wells of 12 well Costar plates containing 1 mL/well of DMEM adjusted to contain 0.05% BSA and 100 ng/mL human TNFα (R&D Systems Cat #210-TA/CF). After overnight culture (37° C. and 5% CO2) wells were adjusted to contain an additional 0.5 mL of DMEM containing 0.05% BSA and with or without 13.2 μM Example 64 (final concentration was 3.3 μM Example 64). Next, cultures were adjusted to contain 30 nM human elastase (Innovative Research). The plates were cultured an additional 72 hrs, at which time MMP9 secreted into the conditioned media was bound to gelatin-sepharose and evaluated by Western blot analysis as described for the rat synoviocyte cultures (vida supra). mAb-51/82 detected three forms of MMP9 in HFL-1 cultures.
A second experiment was performed to determine if the 80 kD form was mature active MMP9 and to determine the potency of Example 64 as an inhibitor of MMP9 maturation in this assay. HFL-1 cells embedded in collagen gels were cultured as described above in the presence of TNFα overnight and the cultures were then adjusted to contain 30 nM elastase and graded concentrations of Example 64 for an additional 72 hrs at which time MMP9 secreted into the conditioned media was bound to gelatin-sepharose and evaluated by Western blot analysis for active MMP9 using pAb-1246 raised against the N-terminal neoepitope of active MMP9 (Table 5). In the absence of Example 64, pAb-1246 readily detected MMP9 with an electrophoretic mobility of approximately 80 kD. […] Inhibition occurred over a dose range with an IC50 of approximately 0.3 μM Example 64.

[1] = molecular target: T2, full-length proMMP9(1-707) (SEQ ID NO:1) (Homo sapiens, UniProt P14780, R574P); test: proMMP9/MMP3 P126 Activation Assay; assay type: biochemical; settings: 20 nM proMMP9, 20 nM MMP3, 80 min 37° C.
T2 construct: made in house; host or cells: HEK293 (proMMP9, secreted); E. coli (MMP3)
T2 sequence (P14780 20-707 R574P): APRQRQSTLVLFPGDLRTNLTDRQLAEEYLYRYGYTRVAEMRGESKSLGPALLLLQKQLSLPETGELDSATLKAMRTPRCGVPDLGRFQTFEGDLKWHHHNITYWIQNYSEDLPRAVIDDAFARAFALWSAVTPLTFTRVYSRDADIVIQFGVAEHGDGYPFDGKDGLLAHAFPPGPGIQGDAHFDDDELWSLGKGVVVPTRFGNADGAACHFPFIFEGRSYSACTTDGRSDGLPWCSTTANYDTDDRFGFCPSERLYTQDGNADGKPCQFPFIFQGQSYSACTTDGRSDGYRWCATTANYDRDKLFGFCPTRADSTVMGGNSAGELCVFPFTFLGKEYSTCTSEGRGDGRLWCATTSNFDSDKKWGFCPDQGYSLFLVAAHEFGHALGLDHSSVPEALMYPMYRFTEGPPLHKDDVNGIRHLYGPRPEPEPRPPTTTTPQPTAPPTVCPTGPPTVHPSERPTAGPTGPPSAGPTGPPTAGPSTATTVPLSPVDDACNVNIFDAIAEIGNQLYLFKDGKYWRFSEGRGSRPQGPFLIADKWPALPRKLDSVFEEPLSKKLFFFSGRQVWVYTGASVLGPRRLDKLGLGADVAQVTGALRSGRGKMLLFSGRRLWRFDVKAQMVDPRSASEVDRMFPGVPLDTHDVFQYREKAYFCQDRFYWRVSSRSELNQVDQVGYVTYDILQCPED
Procedure: The reaction volume was 50 μL. […] Reactivity of residual MMP3 towards P-126 substrate was minimal under these conditions.

T1 sequence (P14780 20-707 limits assumed): as the sequence (P14780 20-707 R574P) above, with P555R counted along it

## Cc1nc(C)c(-c2csc(Nc3cc(S(N)(=O)=O)ccc3OC(C)C)n2)s1 [Example 64, 3-(2′,4′-Dimethyl-[4,5′]bithiazolyl-2-ylamino)-4-isopropoxy-benzenesulfonamide.HBr]
proMMP9; 3.3 μM, HFL-1, mAb-L51/82, 30 nM elastase, 72 hrs
  Signal (INT*mm^2) Total: 91346 INT*mm^2
proMMP9; HFL1, 0.12 μM, HFL-1, 80 kD band, pAb-1246
  inhibition at 0.12 µM: 0%
proMMP9; HFL1, 0.37 μM, HFL-1, 80 kD band, pAb-1246
  inhibition at 0.37 µM: 73%
proMMP9; HFL1, 1.1 μM, HFL-1, 80 kD band, pAb-1246
  inhibition at 1.1 µM: 99%
proMMP9; HFL1, 3.3 μM, HFL-1, 80 kD band, pAb-1246
  inhibition at 3.3 µM: 100%
proMMP9; HFL1, 10 μM, HFL-1, 80 kD band, pAb-1246
  inhibition at 10 µM: 100%
[1]
  pIC50: 6.74
